Where a name gives a salt, the structure may show the parent alone.
Key:
[1] = target: T1, LIMK1KD (Homo sapiens, UniProt P53667); experiment: Differential (dynamic) scanning fluorimetry (DSF) assay, LIMK1KD; format: binding; settings: 2 µM LIMK1KD, compound 10 µM, single shot; for ΔTm at 10 µM: read-out: TM Shift LIMK1 (K)
T1 construct: His6 (N, cleaved yes); made in house; host or cells: baculovirus; Sf9 for virus, TriEx insect cells for expression

[2] = target: T2, LIMK2KD (Homo sapiens, UniProt P53671); experiment: Differential (dynamic) scanning fluorimetry (DSF) assay, LIMK2KD; format: binding; settings: LIMK2KD, compound 10 µM, single shot; for ΔTm at 10 µM: read-out: TM Shift LIMK2 (K)
T2 construct: The cDNA coding for LIMK2 residues 330 to 632 was PCR amplified; His6 (N, cleaved yes); made in house; host or cells: baculovirus; Sf9 for virus, TriEx insect cells for expression
T2 sequence (P53671 330-632): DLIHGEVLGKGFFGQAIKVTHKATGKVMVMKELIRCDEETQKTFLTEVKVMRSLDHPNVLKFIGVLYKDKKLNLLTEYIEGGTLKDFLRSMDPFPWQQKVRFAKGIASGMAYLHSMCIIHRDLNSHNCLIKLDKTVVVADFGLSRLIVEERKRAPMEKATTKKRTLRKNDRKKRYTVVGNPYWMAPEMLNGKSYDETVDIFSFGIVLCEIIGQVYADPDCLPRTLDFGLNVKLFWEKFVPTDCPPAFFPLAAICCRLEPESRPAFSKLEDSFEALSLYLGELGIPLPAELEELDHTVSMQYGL

T1 sequence (P53667 330-637): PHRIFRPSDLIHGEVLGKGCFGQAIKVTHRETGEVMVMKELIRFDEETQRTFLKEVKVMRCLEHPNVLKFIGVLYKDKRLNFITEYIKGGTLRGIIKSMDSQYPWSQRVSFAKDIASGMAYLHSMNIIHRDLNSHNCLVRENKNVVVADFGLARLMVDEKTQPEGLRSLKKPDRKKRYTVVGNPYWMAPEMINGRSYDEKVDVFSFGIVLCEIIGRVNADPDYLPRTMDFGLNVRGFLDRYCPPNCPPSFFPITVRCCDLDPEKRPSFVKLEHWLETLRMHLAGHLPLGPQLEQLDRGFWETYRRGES

SMILES | ΔTm at 10 µM [1] [°C] | ΔTm at 10 µM [2] [°C] | TM Shift LIMK1 (K) [1] [K] | TM Shift LIMK2 (K) [2] [K] | also measured
COc1cc2ncnc(Oc3cccc(NC(=O)Nc4cc(C(C)(C)C(F)(F)F)on4)c3)c2cc1OC [CEP-32496] | -0.2 | -0.1 | – | – | –
NC(=O)c1ncn([C@@H]2O[C@H](CO)[C@@H](O)[C@H]2O)c1N [Acadesine] | 0.7 | 2.1 | – | – | –
O=C(NOCC(O)CO)c1cc(Br)c(F)c(F)c1Nc1ccc(I)cc1F (stereo not shown) [PD318088] | – | – | 0.6 | 2.8 | –
CC[C@H](Nc1ncnc2[nH]cnc12)c1nc2cccc(F)c2c(=O)n1-c1ccccc1 [Idelalisib] | – | – | 0.5 | – | TM Shift LIMK1 (K) ([1]; listed as CAL-101 (Idelalisib, GS-1101)): -0.1 K; TM Shift LIMK2 (K) ([2]; 10 µM): -0.8 K; TM Shift LIMK2 (K) ([2]; listed as CAL-101 (Idelalisib, GS-1101), 10 µM): 1.8 K
CCCCOc1c(C(=O)c2c(F)cc(C)cc2F)c[nH]c2nncc1-2 [BMS-265246] | 0.7 | 1.4 | – | – | –
O=C(NCc1ccccc1)c1csc(Nc2ccncn2)n1 [Thiazovivin] | – | – | 1.1 | 1.0 | –
N#CC1(c2ccc(NC(=O)c3cccnc3NCc3ccncc3)cc2)CCCC1 [Apatinib] | 0.2 | 3.8 | – | – | –
Cc1ccc(NC(=O)c2ccc(CN3CCN(C)CC3)cc2)cc1Nc1nccc(-c2cccnc2)n1 [Imatinib Mesylate (STI571), Imatinib Mesylate] | – | – | 0.0 | – | TM Shift LIMK2 (K) ([2]; 10 µM): 0.8 K
CCOc1cc2ncc(C#N)c(Nc3ccc(F)c(Cl)c3)c2cc1NC(=O)/C=C/CN(C)C [Pelitinib (EKB-569), Pelitinib] | -0.7 | 1.5 | – | – | –
C[C@@H]1COCCN1c1cc(C2(S(C)(=O)=O)CC2)nc(-c2cccc3[nH]ccc23)n1 [AZ20] | – | – | 0.8 | -0.8 | –
COc1cc(N2CCC(N3CCN(C)CC3)CC2)ccc1Nc1ncc(Cl)c(Nc2ccccc2P(C)(C)=O)n1 [AP26113] | 3.4 | 0.1 | – | – | –
Cc1[nH]nc2ccc(-c3cncc(OC[C@@H](N)Cc4ccccc4)c3)cc12 [A-674563] | – | – | 0.8 | 0.2 | –
COc1cc2ncnc(Nc3ccc(O)c(Br)c3)c2cc1OC [WHI-P154] | – | – | 1.5 | -0.2 | –
O=C(/C=C/c1ccc(O)c(O)c1)c1ccc(O)cc1O [Butein] | -0.6 | 1.9 | – | – | –
COc1cc2c(Nc3ccc(Br)cc3F)ncnc2cc1OCC1CCN(C)CC1 [Vandetanib (ZD6474), Vandetanib] | 0.1 | 0.1 | – | – | –
CCN(CCO)CCCOc1ccc2c(Nc3cc(CC(=O)Nc4cccc(F)c4)[nH]n3)ncnc2c1 [AZD1152-HQPA, Barasertib] | – | – | 0.6 | – | TM Shift LIMK1 (K) ([1]; listed as Barasertib (AZD1152-HQPA)): 0.2 K; TM Shift LIMK2 (K) ([2]; 10 µM): 0.7 K; TM Shift LIMK2 (K) ([2]; listed as Barasertib (AZD1152-HQPA), 10 µM): -0.2 K
COCC(=O)NC/C=C/c1ccc2ncnc(Nc3ccc(Oc4ccc(C)nc4)c(C)c3)c2c1 [CP-724714] | 0.4 | -0.8 | – | – | –
CCN(CC)CCNC(=O)c1c(C)[nH]c(/C=C2\C(=O)Nc3ccc(F)cc32)c1C [Sunitinib Malate] | – | – | 1.6 | – | TM Shift LIMK2 (K) ([2]; 10 µM): 0.5 K
Cn1cc(C2=C(c3cn(C4CCN(Cc5ccccn5)CC4)c4ccccc34)C(=O)NC2=O)c2ccccc21 [Enzastaurin (LY317615), Enzastaurin] | 1 | 1.6 | – | – | –
O=C(Nc1c[nH]nc1-c1nc2ccc(CN3CCOCC3)cc2[nH]1)NC1CC1 [AT9283] | 9 | 4 | – | – | –
CC[C@H](CO)Nc1nc(NCc2ccccc2)c2ncn(C(C)C)c2n1 [Seliciclib] | – | – | 0.1 | – | TM Shift LIMK1 (K) ([1]; listed as Roscovitine (Seliciclib,CYC202)): -0.4 K; TM Shift LIMK2 (K) ([2]; 10 µM): 0.0 K; TM Shift LIMK2 (K) ([2]; listed as Roscovitine (Seliciclib,CYC202), 10 µM): -1.3 K
C=CC(=O)Nc1cccc(Oc2nc(Nc3ccc(N4CCN(C)CC4)cc3)ncc2Cl)c1 [WZ3146] | – | – | 1.9 | 1.5 | –
COc1ccc2c(Oc3ccc(NC(=O)c4c(C)n(CC(C)(C)O)n(-c5ccccc5)c4=O)nc3)ccnc2c1 [AMG-458] | – | – | 1.3 | -0.8 | –
Cl.Cl.NC1(c2ccc(-c3nc4ccn5c(=O)[nH]nc5c4cc3-c3ccccc3)cc2)CCC1 [MK-2206 2HCl] | – | – | 0.4 | -1.1 | –
Cn1c(=O)c(F)c(Nc2ccc(I)cc2F)c2c(=O)n(C[C@@H](O)CO)cnc21 [TAK-733] | -0.5 | 0.3 | – | – | –
NC1(Cc2ccc(Cl)cc2)CCN(c2ncnc3[nH]ccc23)CC1 [CCT128930] | – | – | 0.4 | 1.0 | –
